Measurements: patent publication EP1935986B1, “Luminogenic and fluorogenic compounds and methods to detect molecules or conditions” (priority 2005, dated 2006)
Values belong to the compound of their own block, whether it stands above or below them.

Key:
CYP1A2 = molecular target: T1, CYP1A2 (Homo sapiens, UniProt P05177); assay: Two-step luminescent P450 screen of luciferin derivatives; type: biochemical; conditions: 50 µM substrate, 1 pmole P450, result in words
T1 construct: purchased Discovery Labware (BD/Gentest); host or cells: insect cell expression system (membrane fractions)
T1 sequence (P05177 2-516 limits assumed): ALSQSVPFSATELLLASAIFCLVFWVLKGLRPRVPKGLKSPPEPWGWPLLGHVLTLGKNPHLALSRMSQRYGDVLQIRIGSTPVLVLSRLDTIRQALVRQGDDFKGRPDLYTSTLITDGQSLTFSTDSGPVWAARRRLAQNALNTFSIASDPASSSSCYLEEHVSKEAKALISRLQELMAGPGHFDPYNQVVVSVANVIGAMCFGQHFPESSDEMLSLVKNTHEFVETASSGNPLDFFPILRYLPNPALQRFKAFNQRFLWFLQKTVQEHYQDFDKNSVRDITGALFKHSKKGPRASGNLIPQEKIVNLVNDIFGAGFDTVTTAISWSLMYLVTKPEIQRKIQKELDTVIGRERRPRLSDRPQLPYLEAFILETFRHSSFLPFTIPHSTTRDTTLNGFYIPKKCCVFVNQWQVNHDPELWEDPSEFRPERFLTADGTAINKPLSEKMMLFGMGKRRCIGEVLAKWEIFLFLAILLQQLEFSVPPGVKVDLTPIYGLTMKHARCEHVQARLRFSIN
Method: (§1) P450s are Supersomes™ purchased from Discovery Labware (BD/Gentest). […] HLM is human liver microsomes.
(§2) 1X substrate concentration: 50 µM.

CYP2C9 = molecular target: T2, CYP2C9 (Homo sapiens, UniProt P11712); assay: as above; type: biochemical; conditions: 50 µM substrate, 1 pmole P450, result in words
T2 construct: purchased Discovery Labware (BD/Gentest); host or cells: insect cell expression system (membrane fractions)
T2 sequence (P11712 whole entry): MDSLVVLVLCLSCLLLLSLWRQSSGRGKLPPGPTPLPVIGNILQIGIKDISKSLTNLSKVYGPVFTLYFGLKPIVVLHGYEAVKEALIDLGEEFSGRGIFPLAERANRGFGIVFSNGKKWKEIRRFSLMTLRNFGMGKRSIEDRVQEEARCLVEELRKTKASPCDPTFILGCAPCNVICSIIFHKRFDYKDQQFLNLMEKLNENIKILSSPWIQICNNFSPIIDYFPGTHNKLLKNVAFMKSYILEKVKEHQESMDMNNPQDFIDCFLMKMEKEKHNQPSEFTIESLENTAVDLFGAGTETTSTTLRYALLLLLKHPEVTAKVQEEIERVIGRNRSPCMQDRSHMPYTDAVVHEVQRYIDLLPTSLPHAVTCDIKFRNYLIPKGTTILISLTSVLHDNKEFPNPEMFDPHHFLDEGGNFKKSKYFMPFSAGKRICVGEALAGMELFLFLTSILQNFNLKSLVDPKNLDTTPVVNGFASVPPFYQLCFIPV
Method: as §1, §2

CYP4A11 = molecular target: T3, CYP4A11 (Homo sapiens, UniProt Q02928); assay: as above; type: biochemical; conditions: result in words
T3 construct: purchased Discovery Labware (BD/Gentest); host or cells: insect cell expression system (membrane fractions)
T3 sequence (Q02928 5-519): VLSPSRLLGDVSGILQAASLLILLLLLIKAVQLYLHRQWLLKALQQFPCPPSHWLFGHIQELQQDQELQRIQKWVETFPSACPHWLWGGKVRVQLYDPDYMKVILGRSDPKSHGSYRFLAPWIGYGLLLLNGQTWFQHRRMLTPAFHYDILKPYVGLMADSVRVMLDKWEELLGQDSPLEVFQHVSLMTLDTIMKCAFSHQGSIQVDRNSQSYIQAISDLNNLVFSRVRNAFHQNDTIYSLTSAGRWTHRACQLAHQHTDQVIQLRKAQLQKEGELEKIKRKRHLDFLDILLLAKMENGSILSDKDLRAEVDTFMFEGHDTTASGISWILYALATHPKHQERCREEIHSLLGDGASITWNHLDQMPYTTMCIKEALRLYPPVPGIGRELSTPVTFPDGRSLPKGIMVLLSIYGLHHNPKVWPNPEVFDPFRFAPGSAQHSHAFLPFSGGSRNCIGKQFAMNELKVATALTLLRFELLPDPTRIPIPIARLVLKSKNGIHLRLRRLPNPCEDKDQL
Method: as §1, §2

CYP1A1 = molecular target: T4, CYP1A1 (Homo sapiens, UniProt P04798); assay: as above; conditions: 50 µM substrate, 1 pmole P450, 37°C 30 minutes; result in words
T4 sequence (P04798 1-512): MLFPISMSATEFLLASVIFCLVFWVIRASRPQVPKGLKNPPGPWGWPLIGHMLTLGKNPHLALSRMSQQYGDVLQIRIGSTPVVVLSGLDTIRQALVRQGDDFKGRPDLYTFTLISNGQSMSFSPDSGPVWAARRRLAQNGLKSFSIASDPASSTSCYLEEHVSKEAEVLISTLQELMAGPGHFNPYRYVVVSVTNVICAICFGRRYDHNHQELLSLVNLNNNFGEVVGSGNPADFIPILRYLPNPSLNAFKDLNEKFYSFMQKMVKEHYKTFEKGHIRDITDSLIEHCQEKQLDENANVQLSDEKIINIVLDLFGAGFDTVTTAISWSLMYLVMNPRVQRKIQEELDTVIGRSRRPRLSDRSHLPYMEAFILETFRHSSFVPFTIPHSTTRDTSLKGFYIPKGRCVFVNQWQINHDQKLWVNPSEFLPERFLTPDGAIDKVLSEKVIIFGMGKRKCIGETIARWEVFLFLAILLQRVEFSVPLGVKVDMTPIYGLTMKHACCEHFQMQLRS

CYP2C8 = molecular target: T5, CYP2C8 (Homo sapiens, UniProt P10632); assay: as above; conditions: 50 µM substrate, 1 pmole P450, result in words
T5 sequence (P10632 1-490): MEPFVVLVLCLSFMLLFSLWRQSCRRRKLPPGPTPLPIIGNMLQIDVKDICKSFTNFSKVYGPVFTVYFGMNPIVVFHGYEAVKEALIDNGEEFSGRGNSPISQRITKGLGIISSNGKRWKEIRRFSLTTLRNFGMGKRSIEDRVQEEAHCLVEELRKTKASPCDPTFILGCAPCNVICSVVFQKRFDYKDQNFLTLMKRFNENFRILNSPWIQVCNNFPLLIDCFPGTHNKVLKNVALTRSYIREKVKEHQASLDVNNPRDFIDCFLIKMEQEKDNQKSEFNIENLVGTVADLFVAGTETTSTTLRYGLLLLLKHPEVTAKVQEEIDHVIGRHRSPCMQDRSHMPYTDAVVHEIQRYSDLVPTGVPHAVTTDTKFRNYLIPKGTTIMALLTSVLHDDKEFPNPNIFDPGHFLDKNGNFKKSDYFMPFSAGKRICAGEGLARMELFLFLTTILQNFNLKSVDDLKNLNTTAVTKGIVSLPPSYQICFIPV

CYP3A7 = CYP3A7 (Homo sapiens, UniProt P24462); assay: as above; conditions: result in words
CYP3A7, sequence (P24462 whole entry): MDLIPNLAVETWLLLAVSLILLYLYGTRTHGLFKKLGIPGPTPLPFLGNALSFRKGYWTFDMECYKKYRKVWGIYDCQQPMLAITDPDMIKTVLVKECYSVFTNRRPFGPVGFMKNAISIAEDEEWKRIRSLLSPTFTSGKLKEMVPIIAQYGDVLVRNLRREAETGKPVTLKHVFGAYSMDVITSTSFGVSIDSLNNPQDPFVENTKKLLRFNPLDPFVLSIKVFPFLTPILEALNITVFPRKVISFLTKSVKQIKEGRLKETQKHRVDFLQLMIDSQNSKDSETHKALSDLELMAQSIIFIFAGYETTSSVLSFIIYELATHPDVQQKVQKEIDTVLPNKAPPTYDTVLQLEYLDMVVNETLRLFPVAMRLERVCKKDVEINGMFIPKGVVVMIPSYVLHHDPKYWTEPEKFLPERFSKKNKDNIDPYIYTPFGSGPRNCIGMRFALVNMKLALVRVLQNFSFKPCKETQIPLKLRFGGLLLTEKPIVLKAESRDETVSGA

CYP2C19 = molecular target: T6, CYP2C19 (Homo sapiens, UniProt P33261); assay: as above; type: biochemical; conditions: for P450 activity / selectivity with the derivative as substrate: result in words
T6 construct: purchased Discovery Labware (BD/Gentest); host or cells: insect cell expression system (membrane fractions)
T6 sequence (P33261 whole entry): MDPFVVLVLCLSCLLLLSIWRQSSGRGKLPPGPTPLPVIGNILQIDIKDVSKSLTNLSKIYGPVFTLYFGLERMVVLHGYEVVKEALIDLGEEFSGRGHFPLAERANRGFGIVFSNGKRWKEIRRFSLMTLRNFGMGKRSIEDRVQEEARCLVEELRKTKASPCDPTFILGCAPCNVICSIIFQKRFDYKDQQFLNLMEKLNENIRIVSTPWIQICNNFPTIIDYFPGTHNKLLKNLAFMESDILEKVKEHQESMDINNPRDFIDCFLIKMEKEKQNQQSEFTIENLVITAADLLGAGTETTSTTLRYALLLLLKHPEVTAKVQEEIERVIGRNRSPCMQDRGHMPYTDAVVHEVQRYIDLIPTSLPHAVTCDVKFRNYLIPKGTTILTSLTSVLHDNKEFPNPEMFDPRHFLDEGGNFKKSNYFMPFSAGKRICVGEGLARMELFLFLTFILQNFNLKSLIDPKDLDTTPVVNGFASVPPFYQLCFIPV
Method: as §1, §2
(§3) For Figure 20, 1 or 5 picomoles of recombinant CYP2D6 or CYP2C19 membrane fractions from an insect cell expression system (SupersomesTM, Discovery Labware) were incubated at 37°C for 60 minutes with 200 µM D-luciferin 6' methyl ether (luciferin-ME) in 50 mM (CYP2C19) or 100 mM (CYP2D6) KPO4 (pH 7.4) with an NADPH regenerating system (as described above) in a volume of 50 µl. […] For Figure 20, the panel of human P450s was screened as described above.

CYP2D6 = molecular target: T7, CYP2D6 (Homo sapiens, UniProt P10635); assay: as above; type: biochemical; conditions: result in words
T7 construct: purchased Discovery Labware (BD/Gentest); host or cells: insect cell expression system (membrane fractions)
T7 sequence (P10635 whole entry): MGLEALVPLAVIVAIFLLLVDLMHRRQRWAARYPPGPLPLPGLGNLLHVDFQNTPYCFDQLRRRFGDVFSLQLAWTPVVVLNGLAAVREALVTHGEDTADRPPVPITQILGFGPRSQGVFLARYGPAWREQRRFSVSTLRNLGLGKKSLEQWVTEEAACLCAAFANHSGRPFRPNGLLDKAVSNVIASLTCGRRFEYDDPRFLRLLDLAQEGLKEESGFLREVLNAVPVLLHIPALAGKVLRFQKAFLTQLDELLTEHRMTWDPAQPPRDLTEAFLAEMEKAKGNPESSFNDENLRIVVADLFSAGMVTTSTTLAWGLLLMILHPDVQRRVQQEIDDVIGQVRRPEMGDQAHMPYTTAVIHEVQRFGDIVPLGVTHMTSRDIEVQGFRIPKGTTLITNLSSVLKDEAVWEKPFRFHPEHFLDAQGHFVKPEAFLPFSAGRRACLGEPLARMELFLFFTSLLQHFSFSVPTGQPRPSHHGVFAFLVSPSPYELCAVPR
Method: as §1, §2, §3

QuantiLum Luciferase = molecular target: T8, QuantiLum Luciferase (Photinus pyralis, UniProt P08659); assay: Scaffolds: light emission of luciferin derivatives with QuantiLum luciferase alone, + Co A, + DTT, + Co A and DTT; type: biochemical, firefly
T8 construct: purchased Promega Corporation E170
T8 sequence (P08659 whole entry): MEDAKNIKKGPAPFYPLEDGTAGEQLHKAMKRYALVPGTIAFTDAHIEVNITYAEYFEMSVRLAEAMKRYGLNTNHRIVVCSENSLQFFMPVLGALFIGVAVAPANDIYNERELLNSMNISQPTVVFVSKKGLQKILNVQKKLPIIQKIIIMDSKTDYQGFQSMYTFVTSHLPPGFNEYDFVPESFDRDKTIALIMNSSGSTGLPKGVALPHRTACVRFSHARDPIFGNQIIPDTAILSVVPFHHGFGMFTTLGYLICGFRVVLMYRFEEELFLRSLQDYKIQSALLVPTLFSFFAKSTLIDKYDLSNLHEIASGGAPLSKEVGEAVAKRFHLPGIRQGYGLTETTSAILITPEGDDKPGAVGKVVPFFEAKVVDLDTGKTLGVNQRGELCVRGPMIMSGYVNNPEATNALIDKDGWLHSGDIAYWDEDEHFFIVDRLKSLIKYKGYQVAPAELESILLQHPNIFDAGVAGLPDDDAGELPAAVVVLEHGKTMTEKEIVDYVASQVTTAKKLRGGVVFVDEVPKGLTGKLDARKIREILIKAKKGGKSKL
Method: The DTT, Coenzyme A, and QuantiLum stock solutions are the same as those described herein.
This solution was diluted 1:1 with water to produce an enzyme solution labeled "No addition." This solution was diluted 1:1 with 400 mM DTT, pH 8.0 to produce a solution labeled +DTT. This solution was diluted 1:1 with 4 mM Coenzyme A to produce a solution labeled + Co A. Finally, this solution was diluted 1:1 with a solution having both 4 mM Coenzyme A and 400 mM DTT to produce a solution labeled +Co A & DTT.
50 µl samples of these solutions were placed in the wells of luminometer microtiter plates, row A to row G, respeutivly. Row H of the plates was given 50 µl of water.
Reactions in these plates were initiated by addition of 50 µl of solution containing QuantiLum luciferase using a 12 channel micropipette. The solutions added to the rows were: columns 1, 5, and 9 - no addition solution; columns 2, 6, and 10 - + Co A solution; columns 3, 7, and 11 + DTT solution, and; columns 4, 8, and 12 - + Co A and DTT solution. After addition of the enzyme solution to the first row on every plate, a timer was started. After addition of the enzyme solution to the last row on each plate, the plate was sealed and read on a Veritas luminometer.

Compound: O=C(OCc1cccnc1)[C@H]1CSC(c2nc3ccccc3s2)=N1 [carboxyl picolinyl ester of luciferin-H, m-picolinyl ester of luciferin-H]
P450 activity / selectivity with the derivative as substrate (CYP1A2): showed preference
signal when the esterase was not added, relative to the plus esterase signal (CYP2C19; purified recombinant CYP2C19 substantially free of carboxylesterases, 2 step assay): less than 10%
P450 activity / selectivity with the derivative as substrate (CYP2C19): showed preference
P450 activity / selectivity with the derivative as substrate (CYP1A1): showed preference

Compound: O=C(O)[C@H]1CSC(c2nc3ccc(OCc4cccnc4)cc3s2)=N1 [luciferin 6' 3-picolinyl ether, reference compound]
P450 activity / selectivity with the derivative as substrate (CYP3A7): cross reacted significantly

Compound: bis-luciferin-xylyldiether
P450 activity / selectivity with the derivative as substrate (CYP3A7): selective

Second part, the compound after the results:

P450 activity / selectivity with the derivative as substrate (CYP1A2): enhanced selectivity
P450 activity / selectivity with the derivative as substrate (CYP1A2; listed as line 12): preferred substrate
P450 activity / selectivity with the derivative as substrate (CYP2C9): enhanced selectivity
P450 activity / selectivity with the derivative as substrate (CYP2C9; listed as line 12): preferred substrate
P450 activity / selectivity with the derivative as substrate (CYP4A11): did not react
P450 activity / selectivity with the derivative as substrate (CYP1A1): preferred substrate
P450 activity / selectivity with the derivative as substrate (CYP2C8): enhanced selectivity
P450 activity / selectivity with the derivative as substrate (CYP2C8; listed as line 12): preferred substrate
Compound: COc1cc(OC)c2nc(C3=NC(C(=O)O)CS3)sc2c1 (centres unmarked) [4-(O-methyl)-6-(O-methyl)-luciferin]

P450 activity / selectivity with the derivative as substrate (CYP1A2): enhanced selectivity
P450 activity / selectivity with the derivative as substrate (CYP1A2; listed as line 11): preferred substrate
P450 activity / selectivity with the derivative as substrate (CYP2C9): enhanced selectivity
P450 activity / selectivity with the derivative as substrate (CYP2C9; listed as line 11): preferred substrate
P450 activity / selectivity with the derivative as substrate (CYP4A11): did not react
P450 activity / selectivity with the derivative as substrate (CYP1A1): preferred substrate
P450 activity / selectivity with the derivative as substrate (CYP2C8): enhanced selectivity
P450 activity / selectivity with the derivative as substrate (CYP2C8; listed as line 11): preferred substrate
Compound: COc1cc(C)c2nc(C3=NC(C(=O)O)CS3)sc2c1 (centres unmarked) [4-methyl-6-(O-methyl)-luciferin]

P450 activity / selectivity with the derivative as substrate (CYP3A7): showed selectivity
Compound: O=C(O)[C@H]1CSC(c2nc3ccc(OCSc4ccc(Cl)cc4)cc3s2)=N1 [6'-p-chlorophenylthiol-methoxy-luciferin, 6-(4-Chloro-phenylthiomethoxy) luciferin]

P450 activity / selectivity with the derivative as substrate (CYP2C19): reacted strongly
P450 activity / selectivity with the derivative as substrate (CYP2D6): substantially increased
Compound: COC(=O)[C@H]1CSC(c2nc3ccc(OC)cc3s2)=N1 [carboxyl ester of luciferin-ME, carboxyl methyl ester of luciferin-ME]

P450 activity / selectivity with the derivative as substrate (CYP2C19): some activity
P450 activity / selectivity with the derivative as substrate (CYP2D6): extremely low activity
P450 activity / selectivity with the derivative as substrate (CYP2D6; listed as Luciferin 6-methyl ether): some activity
light emission values (QuantiLum Luciferase; Derivative Conc. 1.07, Alone): 1197
light emission values (QuantiLum Luciferase; Derivative Conc. 1.07, Co A): 1523
light emission values (QuantiLum Luciferase; Derivative Conc. 1.07, Co A + DTT): 3180
light emission values (QuantiLum Luciferase; Derivative Conc. 1.07, DTT): 3160
light emission values (QuantiLum Luciferase; Derivative Conc. 3.13, Alone): 1053
light emission values (QuantiLum Luciferase; Derivative Conc. 3.13, Co A): 1360
light emission values (QuantiLum Luciferase; Derivative Conc. 3.13, Co A + DTT): 2853
light emission values (QuantiLum Luciferase; Derivative Conc. 3.13, DTT): 3332
light emission values (QuantiLum Luciferase; Derivative Conc. 6.25, Alone): 1240
light emission values (QuantiLum Luciferase; Derivative Conc. 6.25, Co A): 1673
light emission values (QuantiLum Luciferase; Derivative Conc. 6.25, Co A + DTT): 2882
light emission values (QuantiLum Luciferase; Derivative Conc. 6.25, DTT): 2844
light emission values (QuantiLum Luciferase; Derivative Conc. 12.5, Alone): 1563
light emission values (QuantiLum Luciferase; Derivative Conc. 12.5, Co A): 1768
light emission values (QuantiLum Luciferase; Derivative Conc. 12.5, Co A + DTT): 2510
light emission values (QuantiLum Luciferase; Derivative Conc. 12.5, DTT): 2961
light emission values (QuantiLum Luciferase; Derivative Conc. 25, Alone): 2083
light emission values (QuantiLum Luciferase; Derivative Conc. 25, Co A): 2224
light emission values (QuantiLum Luciferase; Derivative Conc. 25, Co A + DTT): 2992
light emission values (QuantiLum Luciferase; Derivative Conc. 25, DTT): 3491
light emission values (QuantiLum Luciferase; Derivative Conc. 50, Alone): 2690
light emission values (QuantiLum Luciferase; Derivative Conc. 50, Co A): 2704
light emission values (QuantiLum Luciferase; Derivative Conc. 50, Co A + DTT): 3635
light emission values (QuantiLum Luciferase; Derivative Conc. 50, DTT): 4052
light emission values (QuantiLum Luciferase; Derivative Conc. 100, Alone): 3589
light emission values (QuantiLum Luciferase; Derivative Conc. 100, Co A): 3389
light emission values (QuantiLum Luciferase; Derivative Conc. 100, Co A + DTT): 4550
light emission values (QuantiLum Luciferase; Derivative Conc. 100, DTT): 5399
Compound: COc1ccc2nc(C3=N[C@@H](C(=O)O)CS3)sc2c1 [luciferin 6-methyl ether, D-luciferin 6' methyl ether, reference compound]
